According to US11814367B2, “Inhibitors of glycogen synthase 1 (GYS1) and methods of use thereof” (Maze Therapeutics, Inc., priority 2021, dated 2023):

Columns and labels:
[1] = target: hGYS1 enzyme (recombinant hGYS1/GN1 protein) (Homo sapiens (Human), UniProt P13807); experiment: GYS1 coupled enzyme assay (PK/LDH); type: biochemical; settings: hGYS1/GN1 50 nM, UDP-Glucose 0.8 mM, G6P 1 mM; geometric mean of at least 2 runs
[2] = tested on: hGYS1 enzyme / glycogen synthesis in HeLa cells; experiment: GYS1 cell based assay (glycogen synthesis, Glucose-glo); parameters: species or system human; settings: Homo sapiens, HeLa, 24 h, 24 h incubation, 20 mM glucose, geometric mean of at least 2 runs
Outline: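 HeLa cells starved 24 h in medium containing only 1× Glutamax were plated onto compound in medium with 20 mM glucose (1% DMSO final) for 24 h, 37 °C, 5% CO2. Acid lysates were Tris-quenched, glucoamylase-digested (pH 5.3, 1 h, 37 °C) and read by Glucose-glo luminescence. IC50 came from Hill fits, as geometric mean of ≥2 runs.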

[3] = target: hGYS2 enzyme (recombinant hGYS2/GN1 protein) (Homo sapiens (Human), UniProt P54840); experiment: GYS2 coupled enzyme assay (PK/LDH); type: biochemical; settings: geometric mean of at least 2 assay runs on separate days, read-out: Avg_IC50
Sequence of hGYS2 enzyme (recombinant hGYS2/GN1 protein) (P54840 whole entry): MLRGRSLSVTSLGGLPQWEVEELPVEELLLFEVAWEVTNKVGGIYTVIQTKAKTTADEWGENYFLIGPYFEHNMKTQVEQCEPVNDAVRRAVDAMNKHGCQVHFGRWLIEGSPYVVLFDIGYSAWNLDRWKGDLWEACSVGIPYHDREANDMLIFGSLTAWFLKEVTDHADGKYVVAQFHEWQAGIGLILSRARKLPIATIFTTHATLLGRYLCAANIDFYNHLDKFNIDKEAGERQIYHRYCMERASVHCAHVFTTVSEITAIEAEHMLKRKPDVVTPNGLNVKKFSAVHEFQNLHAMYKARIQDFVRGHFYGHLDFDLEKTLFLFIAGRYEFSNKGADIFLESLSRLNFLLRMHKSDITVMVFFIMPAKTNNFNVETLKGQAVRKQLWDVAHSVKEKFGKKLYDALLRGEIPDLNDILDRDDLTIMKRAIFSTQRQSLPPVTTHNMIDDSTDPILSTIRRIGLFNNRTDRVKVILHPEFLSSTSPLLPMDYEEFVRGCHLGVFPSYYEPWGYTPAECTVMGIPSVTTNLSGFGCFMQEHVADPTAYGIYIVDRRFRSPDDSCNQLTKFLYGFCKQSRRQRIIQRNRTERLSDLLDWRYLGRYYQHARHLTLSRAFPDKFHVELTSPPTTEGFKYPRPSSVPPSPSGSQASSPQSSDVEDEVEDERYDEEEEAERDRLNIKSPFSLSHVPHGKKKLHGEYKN
Sequence of hGYS2 enzyme (recombinant hGYS2/GN1 protein) (P46976 whole entry partner): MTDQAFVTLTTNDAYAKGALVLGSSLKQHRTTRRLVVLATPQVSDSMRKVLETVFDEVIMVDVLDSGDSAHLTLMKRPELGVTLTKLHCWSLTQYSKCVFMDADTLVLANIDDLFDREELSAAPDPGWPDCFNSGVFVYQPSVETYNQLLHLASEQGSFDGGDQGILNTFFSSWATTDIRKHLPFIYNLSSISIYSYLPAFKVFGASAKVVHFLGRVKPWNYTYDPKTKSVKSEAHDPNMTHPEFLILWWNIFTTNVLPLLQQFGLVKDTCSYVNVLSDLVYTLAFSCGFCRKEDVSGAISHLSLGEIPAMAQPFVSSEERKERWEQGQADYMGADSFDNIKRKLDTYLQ
Outline: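 hGYS2/GN1 200 nM; UDP-Glc 2 mM; glycogen 0.2%; G6P 2 mM; PEP 2 mM, NADH 0.6 mM, PK/LDH 20 U/mL. 50 mM Tris pH 7.5, MgCl2, KCl, BSA, TCEP, 2.5% DMSO. Kinetic A340, 10 min. IC50 = geomean of ≥2 runs.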

Sequence of hGYS1 enzyme (recombinant hGYS1/GN1 protein) (P13807 whole entry): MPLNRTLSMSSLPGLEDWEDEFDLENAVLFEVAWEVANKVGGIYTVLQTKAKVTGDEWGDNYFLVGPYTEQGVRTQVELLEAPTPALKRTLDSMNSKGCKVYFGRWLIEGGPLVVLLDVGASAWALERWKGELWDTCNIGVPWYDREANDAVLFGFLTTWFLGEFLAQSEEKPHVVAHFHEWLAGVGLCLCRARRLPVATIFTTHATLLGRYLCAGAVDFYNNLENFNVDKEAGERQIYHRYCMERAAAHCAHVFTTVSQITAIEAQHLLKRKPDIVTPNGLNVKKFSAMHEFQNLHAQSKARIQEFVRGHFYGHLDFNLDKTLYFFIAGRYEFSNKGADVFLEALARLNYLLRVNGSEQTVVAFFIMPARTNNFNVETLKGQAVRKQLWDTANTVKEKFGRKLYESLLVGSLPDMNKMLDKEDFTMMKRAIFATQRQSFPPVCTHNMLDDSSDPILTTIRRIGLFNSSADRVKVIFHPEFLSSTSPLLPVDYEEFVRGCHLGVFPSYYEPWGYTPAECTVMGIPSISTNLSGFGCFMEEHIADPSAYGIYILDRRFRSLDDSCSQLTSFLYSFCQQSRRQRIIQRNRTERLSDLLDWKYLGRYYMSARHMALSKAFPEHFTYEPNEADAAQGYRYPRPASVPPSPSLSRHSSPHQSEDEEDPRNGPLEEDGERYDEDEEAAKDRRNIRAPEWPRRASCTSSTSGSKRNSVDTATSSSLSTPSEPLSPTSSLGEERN
Sequence of hGYS1 enzyme (recombinant hGYS1/GN1 protein) (P46976 whole entry partner): as the sequence (P46976 whole entry partner) above

Row | SMILES | IC50 [1] | IC50 [2] | IC50 [3]
1 | Cc1coc(CC(=O)N2C[C@H](F)C[C@H]2C(=O)N[C@@H](c2ccccc2)c2ccc(C(C)C)cn2)n1 [Compound 272] | 54 nM | 710 nM | > 100000 nM
2 | CC(C)c1ccc([C@@H](NC(=O)[C@@H]2C[C@@H](F)CN2C(=O)[C@H](C)NC(=O)N(C)C)c2ccccc2)nc1 [Compound 273, (2S,4R)-1-[(2S)-2-[(dimethylcarbamoyl)amino]propanoyl]-4-fluoro-N-[(S)-phenyl[5-(propan-2-yl)pyridin-2-yl]methyl]pyrrolidine-2-carboxamide] | 149 nM | 1790 nM | > 100000 nM
3 | CC(C)c1ccc([C@@H](NC(=O)[C@@H]2C[C@@H](F)CN2C(=O)[C@@H](C)NC(=O)N(C)C)c2ccccc2)nc1 [Compound 274, (2S,4R)-1-[(2R)-2-[(dimethylcarbamoyl)amino]propanoyl]-4-fluoro-N-[(S)-phenyl[5-(propan-2-yl)pyridin-2-yl]methyl]pyrrolidine-2-carboxamide] | 264 nM | 3230 nM | > 100000 nM
4 | Cc1nn(CC(=O)N2C[C@H](F)C[C@H]2C(=O)N[C@@H](c2ccccc2)c2ccc(C(C)C)cn2)c(=O)o1 [Compound 275, (2S,4R)-4-fluoro-1-[2-(5-methyl-2-oxo-2,3-dihydro-1,3,4-oxadiazol-3-yl)acetyl]-N-N-[(S)-phenyl[5-(propan-2-yl)pyridin-2-yl]methyl]pyrrolidine-2-carboxamide] | 76 nM | 1050 nM | > 100000 nM
5 | CC(C)c1ccc([C@@H](NC(=O)[C@@H]2C[C@@H](F)CN2C(=O)Cn2ncc(N3CCC3)n2)c2ccccc2)nc1 [Compound 276, (2S,4R)-1-{2-[4-(azetidin-1-yl)-2H-1,2,3-triazol-2-yl]acetyl}-4-fluoro-N-[(S)-phenyl[5-(propan-2-yl)pyridin-2-yl]methyl]pyrrolidine-2-carboxamide] | 20 nM | 400 nM | > 100000 nM
6 | CC(C)c1ccc([C@@H](NC(=O)[C@@H]2C[C@@H](F)CN2C(=O)Cn2ncc(N3CC(F)(F)C3)n2)c2ccccc2)nc1 [Compound 277, (2S,4R)-1-{2-[4-(3,3-difluoroazetidin-1-yl)-2H-1,2,3-triazol-2-yl]acetyl}-4-fluoro-N-[(S)-phenyl[5-(propan-2-yl)pyridin-2-yl]methyl]pyrrolidine-2-carboxamide] | 31 nM | 650 nM | > 100000 nM
7 | CCN(CC)c1cnn(CC(=O)N2C[C@H](F)C[C@H]2C(=O)N[C@@H](c2ccccc2)c2ccc(C(C)C)cn2)n1 [Compound 278, (2S,4R)-1-{2-[4-(diethylamino)-2H-1,2,3-triazol-2-yl]acety}-4-fluoro-N-N-[(S)-phenyl[5-(propan-2-yl)pyridin-2-yl]methyl]pyrrolidine-2-carboxamide] | 11 nM | 230 nM | > 100000 nM
8 | CC(C)c1ccc([C@@H](NC(=O)[C@@H]2[C@H]3C[C@H]3CN2C(=O)Cc2cnn[nH]2)c2ccccc2)nc1 [Compound 279, (1S,2S,5R)-N-[(S)-phenyl[5-(propan-2-yl)pyridin-2-yl]methyl]-3-[2-(1H-1,2,3-triazol-5-yl)acetyl]-3-azabicyclo[3.1.0]hexane-2-carboxamide] | 234 nM | 2310 nM | > 100000 nM
9 | CC(C)c1ccc([C@@H](NC(=O)[C@@H]2CC[C@H](C)N2C(=O)Cc2cnn[nH]2)c2ccccc2)nc1 [Compound 280, (2S,5S)-5-methyl-N-[(S)-phenyl[5-(propan-2-yl)pyridin-2-yl]methyl]-1-[2-(1H-1,2,3-triazol-5-yl)acetyl]pyrrolidine-2-carboxamide] | 149 nM | 1530 nM | > 100000 nM
10 | CC(C)c1ccc([C@@H](NC(=O)[C@@H]2C[C@@H](F)CN2C(=O)CNC(=O)N2CCN(CC(F)(F)F)CC2)c2ccccc2)nc1 [Compound 281, N-{2-[(2S,4R)-4-fluoro-2-{[(S)-phenyl[5-(propan-2-yl)pyridin-2-yl]methyl]carbamoyl}pyrrolidin-1-yl]-2-oxoethyl}-4-(2,2,2-trifluoroethyl)piperazine-1-carboxamide] | 59 nM | 1560 nM | > 100000 nM
11 | CC(C)c1ccc([C@@H](NC(=O)[C@@H]2C[C@@H](F)CN2C(=O)CNC(=O)N2CCN(CC3CC3)CC2)c2ccccc2)nc1 [Compound 282, 4-(cyclopropylmethyl)-N-{2-[(2S,4R)-4-fluoro-2-{[(S)-phenyl[5-(propan-2-yl)pyridin-2-yl]methyl]carbamoyl}pyrrolidin-1-yl]-2-oxoethyl}piperazine-1-carboxamide] | 49 nM | 4180 nM | > 100000 nM
12 | CC(C)c1ccc([C@@H](NC(=O)[C@@H]2C[C@@H](F)CN2C(=O)CNC(=O)N2CCN(C)CC2)c2ccccc2)nc1 [Compound 283, N-{2-[(2S,4R)-4-fluoro-2-{[(S)-phenyl[5-(propan-2-yl)pyridin-2-yl]methyl]carbamoyl}pyrrolidin-1-yl]-2-oxoethyl}-4-methylpiperazine-1-carboxamide] | 58 nM | 2400 nM | > 100000 nM
13 | CC(C)c1ccc([C@@H](NC(=O)[C@@H]2C[C@@H](F)CN2C(=O)Cc2n[nH]c(=O)[nH]2)c2ccccc2)nc1 [Compound 284, (2S,4R)-4-fluoro-1-[2-(5-oxo-4,5-dihydro-1H-1,2,4-triazol-3-yl)acetyl]-N-[(S)-phenyl[5-(propan-2-yl)pyridin-2-yl]methyl]pyrrolidine-2-carboxamide] | 90 nM | 5190 nM | > 100000 nM
14 | CC(C)c1ccc([C@@H](NC(=O)[C@@H]2C[C@@H](F)CN2C(=O)CCc2n[nH]c(=O)[nH]2)c2ccccc2)nc1 [Compound 287, (2S,4R)-4-fluoro-1-[3-(5-oxo-4,5-dihydro-1H-1,2,4-triazol-3-yl)propanoyl]-N-[(S)-phenyl[5-(propan-2-yl)pyridin-2-yl]methyl]pyrrolidine-2-carboxamide] | 124 nM | 11800 nM | > 100000 nM
15 | O=C(N[C@@H](c1ccccc1)c1ccc(C2CC2)c(F)n1)[C@@H]1C[C@@H](F)CN1C(=O)Cn1nnnc1C(F)F [Compound 293, (2S,4R)-N-((S)-(5-cyclopropl-6-fluoropyridin-2-yl)(phenyl)methyl)-1-(2-(5-(difluoromethyl)-1H-tetrazol-1-yl)acetyl)-4-fluoropyrrolidine-2-carboxamide] | 38 nM | 660 nM | > 100000 nM
16 | O=C(N[C@@H](c1ccccc1)c1ccc(C2CC2)c(F)n1)[C@@H]1C[C@@H](F)CN1C(=O)Cn1cnc2ccccc21 [Compound 294, (2S,4R)-1-[2-(1H-1,3-benzodiazol-1-yl)acetyl]-N-[(S)-(5-cyclopropyl-6-fluoropyridin-2-yl)(phenyl)methyl]-4-fluoropyrrolidine-2-carboxamide] | 6 nM | 160 nM | > 100000 nM
17 | Cc1cn(CC(=O)N2C[C@H](F)C[C@H]2C(=O)N[C@@H](c2ccccc2)c2ccc(C3CC3)c(F)n2)c(=O)[nH]c1=O [Compound 295, (2S,4R)-N-[(S)-(5-cyclopropyl-6-fluoropyridin-2-yl)(phenyl)methyl]-4-fluoro-1-[2-(5-methyl-2,4-dioxo-1,2,3,4-tetrahydropyrimidin-1-yl)acetyl]pyrrolidine-2-carboxamide] | 13 nM | 590 nM | > 100000 nM
18 | O=C(N[C@@H](c1ccccc1)c1ccc(C2CC2)c(F)n1)[C@@H]1C[C@@H](F)CN1C(=O)Cn1cnnc1 [Compound 296, (2S,4R)-N-[(S)-(5-cyclopropyl-6-fluoropyridin-2-yl)(phenyl)methyl]-4-fluoro-1-[2-(4H-1,2,4-triazol-4-yl)acetyl]pyrrolidine-2-carboxamide] | 87 nM | 4440 nM | > 100000 nM
19 | CN(C)c1cnnn1CC(=O)N1C[C@H](F)C[C@H]1C(=O)N[C@@H](c1ccccc1)c1ccc(C2CC2)c(F)n1 [Compound 298, (2S,4R)-N-[(S)-(5-cyclopropyl-6-fluoropyridin-2-yl)(phenyl)methyl]-1-{2-[5-(dimethylamino)-1H-1,2,3-triazol-1-yl]acetyl}-4-fluoropyrrolidine-2-carboxamide] | 12 nM | 260 nM | > 100000 nM
20 | CN(C)c1cn(CC(=O)N2C[C@H](F)C[C@H]2C(=O)N[C@@H](c2ccccc2)c2ccc(C3CC3)c(F)n2)nn1 [Compound 299, (2S,4R)-N-[(S)-(5-cyclopropyl-6-fluoropyridin-2-yl)(phenyl)methyl]-1-{2-[4-(dimethylamino)-1H-1,2,3-triazol-1-yl]acetyl}-4-fluoropyrrolidine-2-carboxamide] | 22 nM | 420 nM | > 100000 nM
21 | CN(C)C(=O)NCC(=O)N1C[C@H](F)C[C@H]1C(=O)N[C@@H](c1ccccc1)c1ccc(C2CC2)c(F)n1 [Compound 300, (2S,4R)-N-[(S)-(5-cyclopropyl-6-fluoropyridin-2-yl)(phenyl)methyl]-1-{2-[(dimethylcarbamoyl)amino]acetyl}-4-fluoropyrrolidine-2-carboxamide] | 28 nM | 570 nM | > 100000 nM
